The text below walks through data of ChEMBL document CHEMBL5107992, “Development of potent non-acylhydrazone inhibitors of intestinal sodium-dependent phosphate transport protein 2b (NaPi2b)” (Bioorg Med Chem, 2022).

≈ marks a conversion by molar mass, not a printed value.

The target of series [1] is T1, Sodium-dependent phosphate transport protein 2B (Homo sapiens, UniProt O95436).
T1 sequence (O95436 whole entry): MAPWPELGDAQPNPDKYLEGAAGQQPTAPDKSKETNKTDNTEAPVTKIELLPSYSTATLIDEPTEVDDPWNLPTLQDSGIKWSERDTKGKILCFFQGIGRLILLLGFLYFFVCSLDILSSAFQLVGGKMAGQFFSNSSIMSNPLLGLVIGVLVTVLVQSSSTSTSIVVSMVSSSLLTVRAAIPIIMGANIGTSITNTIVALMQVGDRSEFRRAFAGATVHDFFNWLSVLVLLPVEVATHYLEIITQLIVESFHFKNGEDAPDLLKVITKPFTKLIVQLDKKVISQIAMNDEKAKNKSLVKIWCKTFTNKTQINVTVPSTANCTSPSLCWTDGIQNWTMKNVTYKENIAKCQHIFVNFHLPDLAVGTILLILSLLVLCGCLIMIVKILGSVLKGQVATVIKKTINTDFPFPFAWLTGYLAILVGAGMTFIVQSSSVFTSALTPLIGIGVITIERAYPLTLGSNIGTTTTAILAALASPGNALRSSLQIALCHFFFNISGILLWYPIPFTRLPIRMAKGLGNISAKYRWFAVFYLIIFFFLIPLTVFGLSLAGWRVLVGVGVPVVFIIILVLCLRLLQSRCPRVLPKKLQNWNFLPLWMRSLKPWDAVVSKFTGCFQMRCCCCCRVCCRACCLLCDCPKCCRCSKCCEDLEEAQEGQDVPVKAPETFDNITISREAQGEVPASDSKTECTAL
As to the kind of experiment: Inhibition of human NaPi2b transfected in human KJMGER8 cells assessed as reduction in H2[33P]O4 uptake incubated for 60 mins by TopCount scintillation counting method. Format: cell-based.

Series [2] is described as follows: Aqueous solubility of compound in PBS buffer at pH 7.4. In kind it is physicochemical.
Series [3] can be described thus: Intestinal availability in Sprague-Dawley rat. In kind it is ADME.
Series [4] is described as follows: Membrane permeability of compound. In kind it is ADME. The following applies: not told; read-out: permeability.
A short description of series [5]: Aqueous solubility of compound in PBS buffer at pH 6. In kind it is physicochemical.
A short description of series [6]: Intestinal availability in rat at 3 mg/kg, po measured after 120 mins by LC/MS-MS analysis. Format: ADME, organism-based. The following applies: in vivo, 2 h.

As for `COC(=O)c1ccc(CCc2ccc(NC(=O)c3c(NC(=O)c4cccc(COCCOCCOCCOCCOCCOCCO)c4)sc4c3CCC(C)(C)C4)cc2C)cc1`, the IC50 in series [1] was under 100 nM. Besides, the concentration in solution in series [2] (solubility) came to 0.72 µM (≈ 0.63 µg/mL).

Consider `CC1(C)CCc2c(sc3nc(-c4cccc(COCCOCCOCCOCCOCCOCCO)c4)oc(=O)c23)C1`, for which the concentration for half-maximal inhibition (IC50) in series [1] was 2880 nM. The compound also showed a solubility in series [2] of 36 µM (≈ 21.8 µg/mL).

With `CC1(C)CCc2c(sc(NC(=O)c3cccc(COCCOCCOCCOCCOCCOCCO)c3)c2C(=O)Nc2ccc(Cc3ccccc3)cc2)C1`, the concentration for half-maximal inhibition (IC50) in series [1] is under 100 nM. Besides, the solubility in series [2] was 0.48 µM (≈ 0.379 µg/mL).

`CC1(C)CCc2c(sc(NC(=O)c3cccc(OCCOCCOCCOCCOCCOCCO)c3)c2C(=O)Nc2ccc(CCc3ccc(C(=O)O)cc3)cc2)C1`: in series [1], the 50% inhibitory concentration (IC50) is under 100 nM. The compound further gave a solubility in series [2] of 115 µM (≈ 95.8 µg/mL).

On to `Cc1nnc(-c2ccc(CCc3ccc(NC(=O)c4c(NC(=O)c5cccc(COCCOCCOCCOCCOCCOCCOCC(=O)O)c5)sc5c4CCC(C)(C)C5)cc3)cc2)o1`, for which the IC50 in series [1] stood at 103 nM. The same compound returned a solubility in series [2] of 62 µM (≈ 58.5 µg/mL).

In the case of `CC1(C)CCc2c(sc(NC(=O)c3cccc(COCCOCCOCCOCCOCCOCCO)c3)c2C(=O)Nc2ccccc2)C1`, the half-maximal inhibitory concentration (IC50) in series [1] was found to be 1400 nM. In series [2], this compound displayed a solubility of 81 µM (≈ 56.6 µg/mL).

For the compound `Cc1cc(NC(=O)c2c(NC(=O)c3cccc(OCCOCCOCCOCCOCCOCCOCC(=O)O)c3)sc3c2CCC(C)(C)C3)ccc1CCc1ccc(-c2ncco2)cc1`, in series [1], the concentration for half-maximal inhibition (IC50) stood at 43 nM. Further, the concentration in solution in series [2] (solubility) came to 79 µM (≈ 73.3 µg/mL).

For `COc1ccc(NC(=O)c2c(NC(=O)c3cccc(COCCOCCOCCOCCOCCOCCO)c3)sc3c2CCC(C)(C)C3)cc1`, the IC50 in series [1] was found to be 1140 nM. Further, the concentration in solution in series [2] (solubility) was 2.3 µM (≈ 1.68 µg/mL).

The compound `COCCN(CCOCCOCCOCCOCCOCCOCc1cccc(C(=O)Nc2sc3c(c2C(=O)N/N=C/c2ccc(Cl)c(C(F)(F)F)c2)CCC(C)(C)C3)c1)CC(=O)O` yielded a FaFg in series [3] of 0.1%.

As to `Cc1cc(NC(=O)c2c(NC(=O)c3cccc(OCCOCCOCCOCCOCCOCCOCC(=O)O)c3)sc3c2CCC(C)(C)C3)ccc1CCc1ccc(-c2nccs2)cc1`, the IC50 in series [1] was 288 nM. The concentration in solution in series [2] (solubility) was 87 µM (≈ 82.1 µg/mL).

As to `Cc1nnc(-c2ccc(CCc3ccc(NC(=O)c4c(NC(=O)c5cccc(CSCCOCCOCCOCCOCCOCCOCCOCCOCCC(=O)O)c5)sc5c4CCC(C)(C)C5)cc3)cc2)o1`, in series [1], the half-inhibitory concentration (IC50) was determined as 24 nM. In addition, the concentration in solution in series [2] (solubility) was 91 µM (≈ 96.6 µg/mL).

As for `COC(=O)c1ccc(CCc2ccc(NC(=O)c3c(NC(=O)c4cccc(OCCOCCOCCOCCOCCOCCO)c4)sc4c3CCC(C)(C)C4)cc2)cc1`, the IC50 in series [1] is under 100 nM. In addition, in series [2], the concentration in solution (solubility) came to 1.6 µM (≈ 1.36 µg/mL).

Take `COC(=O)c1ccc(CCc2ccc(NC(=O)c3c(NC(=O)c4cccc(OCCOCCOCCOCCOCCOCCOCC(=O)O)c4)sc4c3CCC(C)(C)C4)cc2C)cc1`: the IC50 in series [1] worked out at 71 nM. In series [2], this compound gave a solubility of 116 µM (≈ 107 µg/mL).

Take `CCC(CC)N(CCN(C)C(=O)CCC(=O)NCCOCCOCCOCCO)Cc1cccc(C(=O)Nc2sc3c(c2C(=O)c2cnn(-c4ccc(Cl)c(C(F)(F)F)c4)c2)CCC(C)(C)C3)c1`: the FaFg in series [3] is 0.2%.

In the case of `CCc1ccc(NC(=O)c2c(NC(=O)c3cccc(COCCOCCOCCOCCOCCOCCO)c3)sc3c2CCC(C)(C)C3)cc1`, the half-maximal inhibitory concentration (IC50) in series [1] was under 100 nM. This compound displayed a solubility in series [2] of 0.39 µM (≈ 0.284 µg/mL).

With `Cc1nnc(-c2ccc(CCc3ccc(NC(=O)c4c(NC(=O)c5cccc(COCCOCCOCCOCC(=O)O)c5)sc5c4CCC(C)(C)C5)cc3)cc2)o1`, the IC50 in series [1] was determined as 61 nM. Also, the concentration in solution in series [2] (solubility) came to 156 µM (≈ 127 µg/mL).

For the compound `Cc1nnc(-c2ccc(CCc3ccc(NC(=O)c4c(NC(=O)c5cccc(CN(C)CCOCCOCCOCCC(=O)O)c5)sc5c4CCC(C)(C)C5)cc3)cc2)o1`, in series [4], the Papp was under 0.09 ×10⁻⁶ cm/s. In series [1], the IC50 was 14 nM. The solubility is 52 µM (≈ 43.6 µg/mL) in series [5] and 96 µM (≈ 80.5 µg/mL) in series [2]. The same compound yielded a FaFg in series [6] of 5.9%.
